# Results as given in patent US10407441B2, “Compositions and methods for treating neoplasia, inflammatory disease and other disorders” (Dana-Farber Cancer Institute, Inc., priority 2010, dated 2019).
# Read-outs that look alike come from different tables or passages of the source.
# Tests used:
# [1] = test system: 797 cells; experiment: Cell proliferation assay, 797 NMC cell line; format: cell-based; conditions: Homo sapiens, read-out: Cell-assay IC50 797 cells
# Procedure: Curve fit was calculated by logistical regression.
# Cells were seeded into white, 384-well microtiter plates (Nunc) at 500 cells per well in a total volume of 50 μL media. […] Compounds were delivered to microtiter assay plates by robotic pin transfer (PerkinElmer JANUS equipped with a V&P Scientific 100 nL pin tool). Following a 48 h incubation at 37° C., cells were lysed and wells were assessed for total ATP content using a commercial proliferation assay (Cell TiterGlo; Promega). Replicate measurements were analyzed with respect to dose and estimates of IC50 were calculated by logistic regression (GraphPad Prism).
# [2] = test system: 10326 cells; experiment: Cell proliferation assay, 10326 patient-derived cell line; format: cell-based; conditions: Homo sapiens, read-out: Cell-assay IC50 10326 cells
# Procedure: Curve fit was calculated by logistical regression (FIG. 56C). […] Curve fit was calculated by logistical regression.
# [3] = molecular target: BRD4(1) (Homo sapiens (Human), UniProt O60885); experiment: Alpha-assay acetyl-histone binding, BRD4 site 1
# Procedure: The binding activity of lead compounds with the BRD4 site 1 was determined by Alpha-assay with a 12-point dose response curve (FIG. 56A).
# Assays were performed as described previously^8 with minor modifications from the manufacturer's protocol (PerkinElmer, USA). All reagents were diluted in 50 mM HEPES, 100 mM NaCl, 0.1% BSA, pH 7.4 supplemented with 0.05% CHAPS and allowed to equilibrate to room temperature prior to addition to plates. […] Plates were sealed and incubated for a further 30 minutes, before the addition of 4 μl of streptavidin-coated donor beads (25 μg/ml) and 4 μl nickel chelate acceptor beads (25 μg/ml) under low light conditions. Plates were foil-sealed to protect from light, incubated at room temperature for 60 minutes and read on a PHERAstar FS plate reader (BMG Labtech, Germany) using an AlphaScreen 680 excitation/570 emission filter set. IC50 values were calculated in Prism 5 (GraphPad Software, USA) after normalization against corresponding DMSO controls and are given as the final concentration of compound in the 20 μl reaction volume.
# [4] = molecular target: BRD4(2) (Homo sapiens (Human), UniProt O60885); experiment: Alpha-assay acetyl-histone binding, BRD4 site 2
# [5] = test system: NMC 11060 cells; experiment: cells; conditions: Homo sapiens, NMC 11060, 72 h, read-out: cellular viability IC50
# Procedure: Data is presented as mean±s.d. (n=3). IC50 values were calculated by logistic regression. […] (n=3).
# (§1) In parallel with these studies, a patient with widely metastatic BRD4-NUT positive NMC arising from the mediastinum was identified. With the goal of developing a more clinically-relevant disease model, short-term cultures were established using discarded clinical material obtained from pleural fluid draining from a palliative chest tube in the patient.
# [6] = test system: NMC 797 and Per403 cells; experiment: Differentiation and proliferation immunohistochemistry in NMC cells; format: cell-based, human; conditions: BRD4-dependent NMC cells
# [7] = molecular target: GFP-BRD4 (Homo sapiens (Human), UniProt O60885); experiment: FRAP in U2OS cells transfected with GFP-BRD4; format: cell-based
# Procedure: (§4) FRAP studies were performed on U2OS cells as previously described^3,20. In brief, U2OS cells were transfected (lipofectamine; Invitrogen) with mammalian overexpression constructs encoding GFP chimera with BRD4, NUT and BRD4-NUT. A 5 μm^2 nuclear region was bleached with high laser intensity in one cell within each field, and measured for recovery with low laser intensity and a 150 μm pinhole. Images of identical fields were acquired using a Nikon C1 Plus confocal microscope equipped with a 37° C. heated chamber and FRAP modules over 90 seconds. Average intensities of the bleached region were measured over time and using MetaMorph v7, and normalized to an independent region of interest before bleaching.
# [8] = test system: NMC 11060 xenografts; experiment: Patient-derived NMC 11060 primary xenograft, PET imaging; format: in vivo, mouse; conditions: 50 mg kg^-1 daily for four days
# From the text: as §1
# [9] = test system: Per403 cells; experiment: cells; conditions: Homo sapiens, PER-403, 72 h, read-out: Per403 IC50 (inhibition of cell growth)
# Procedure: (§2) Thus, early and late apoptosis was assessed with annexin-V and propidium iodide staining by flow cytometry.
# [10] = test system: TE10; experiment: Differentiation immunohistochemistry in non-BRD4-dependent squamous carcinoma cell line
# Procedure: Media was then removed and chambers were washed with cold PBS. Cells were then fixed in 4% formaldehyde for 20 minutes at 4° C., washed with PBS and transferred to the Dana-Farber/Harvard Cancer Center (DF/HCC) Specialized Histopathology Services Core at Brigham and Women's Hospital for staining, as described below. […] Cells were then trypsinized and cell pellets were formed by centrifugation at 2,000 rpm for 10 minutes, stabilized with ½ volume of HistoGel (Richard-Allen Scientific) and 10% bovine serum albumin. Cell pellets were washed with PBS and fixed in 4% formaldehyde for 20 minutes at 4° C. The cells were then washed with PBS and transferred to the DF/HCC Core Laboratory at the Brigham and Women's Hospital for staining, as described below. […] All fixed material was embedded, sectioned and stained by the DF/HCC Core Laboratory at Brigham and Women's Hospital, using established optimized protocols. Images were obtained using an Olympus BX40 microscope (Olympus Imaging America, Center Valley, Pa.) and a Micropublisher 3.3 RTV color camera (QImaging, Surrey, BC).
# [11] = molecular target: GFP-BRD4-NUT (Homo sapiens (Human), UniProt O60885+Q86Y26); conditions: 500 nM
# Procedure: as §4
# [12] = test system: NMC 797 xenografts; experiment: NMC 797 xenograft efficacy study; format: in vivo, mouse
# From the text: Animals were followed daily for clinical symptoms.
# [13] = molecular target: GFP-NUT (Homo sapiens (Human), UniProt Q86Y26); experiment: FRAP in cells transfected with GFP-NUT; conditions: 500 nM
# Procedure: as §4
# [14] = test system: BRD3-NUT cells; experiment: BRD3-NUT murine xenograft model; format: in vivo, mouse; conditions: 50 mg/kg IP 7 days/week
# From the text: Mice were implanted subcutaneously with BRD3-NUT cells. Tumor measurement data were collected weekly. […] On day 24 post-injection, five mice from each group were euthanized and tumor samples were collected to be sent for lab analysis. Throughout the remainder of the study tumor samples were collected as mice were sacrificed. For all samples one half of the tumor was fixed in 10% formalin and the other half was flash frozen on dry ice. Treatment ended on day 32. Tumor volume and weights were collected weekly until all mice either became moribund or tumors reached 2 cm in any dimension. […] Upon cessation of therapy, tumor growth resumed. Tumor volume differences were significant at all points (p=7.65274E-09 at Day 24).
# [15] = test system: TT; experiment: Cell proliferation, TT squamous carcinoma cell line; format: cell-based, human; conditions: 250 nM, 72 hours
# Procedure: (§3) Data is presented as mean±s.d. (n=3). IC50 values were calculated by logistic regression.
# [16] = test system: TE10; experiment: Cell proliferation, TE10 squamous carcinoma cell line; format: cell-based, human; conditions: 250 nM, 72 hours
# Procedure: as §3
# [17] = test system: BRD4-dependent human carcinoma cells; experiment: Annexin-V / propidium iodide flow cytometry (apoptosis); format: cell-based; conditions: 500 nM, 24 or 48 hours
# Procedure: as §2
# Trypsinized cells were mixed 1:1 on ice with Annexin-V/propidium iodide buffer (10 mM HEPES pH 7.4, 140 mM NaCl, 2.5 mM CaCl2) containing Annexin V-FITC (BD Pharmingen, 1:500) and propidium iodide (Invitrogen, 1:1000). Samples were immediately analyzed on a BD FACS Canto II. Visualizations and analyses of apoptotic fractions were generated using FlowJo flow cytometry analysis software (Tree Star, Inc.).
# [18] = test system: cellular receptors; experiment: Off-target effects on cellular receptors
# Chain of GFP-NUT (Q86Y26 whole entry, looked up): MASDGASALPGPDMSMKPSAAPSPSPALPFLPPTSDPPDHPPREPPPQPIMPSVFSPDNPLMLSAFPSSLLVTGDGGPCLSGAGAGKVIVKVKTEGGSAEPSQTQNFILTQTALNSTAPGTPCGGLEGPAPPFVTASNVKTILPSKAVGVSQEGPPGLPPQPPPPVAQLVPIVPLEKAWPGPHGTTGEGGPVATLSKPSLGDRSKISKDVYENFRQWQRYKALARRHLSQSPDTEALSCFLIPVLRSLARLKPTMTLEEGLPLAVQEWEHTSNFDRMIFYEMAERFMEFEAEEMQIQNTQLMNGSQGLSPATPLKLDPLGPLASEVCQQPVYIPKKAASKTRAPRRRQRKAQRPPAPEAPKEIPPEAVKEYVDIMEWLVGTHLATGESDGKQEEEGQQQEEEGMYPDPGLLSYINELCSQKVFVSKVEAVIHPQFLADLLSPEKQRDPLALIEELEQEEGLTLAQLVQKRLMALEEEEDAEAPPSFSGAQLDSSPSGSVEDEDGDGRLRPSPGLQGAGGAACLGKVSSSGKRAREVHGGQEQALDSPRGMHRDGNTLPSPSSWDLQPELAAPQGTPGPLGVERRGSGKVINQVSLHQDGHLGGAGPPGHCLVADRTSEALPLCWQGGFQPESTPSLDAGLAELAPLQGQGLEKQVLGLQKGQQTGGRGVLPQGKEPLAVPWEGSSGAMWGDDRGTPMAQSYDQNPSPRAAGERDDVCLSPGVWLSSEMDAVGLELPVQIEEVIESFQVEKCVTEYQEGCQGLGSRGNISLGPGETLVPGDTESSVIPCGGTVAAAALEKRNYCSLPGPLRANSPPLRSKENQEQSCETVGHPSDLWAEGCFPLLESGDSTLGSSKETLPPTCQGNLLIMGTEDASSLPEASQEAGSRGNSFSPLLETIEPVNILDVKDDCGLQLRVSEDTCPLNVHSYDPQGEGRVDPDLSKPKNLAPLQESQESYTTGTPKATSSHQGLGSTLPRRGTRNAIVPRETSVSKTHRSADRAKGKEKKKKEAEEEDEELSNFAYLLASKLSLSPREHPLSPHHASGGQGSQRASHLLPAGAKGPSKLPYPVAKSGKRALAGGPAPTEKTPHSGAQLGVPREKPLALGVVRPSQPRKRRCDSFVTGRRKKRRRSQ
compound,measurement,setting,value
Cc1sc2c(c1C)C(c1ccc(Cl)cc1)=N[C@H](CC(=O)OC(C)(C)C)c1nnc(C)n1-2 [(R)-JQ1],IC50,[1]; 72 h,1540 µM
same,IC50,[2]; 72 h,11800 nM
Cc1sc2c(c1C)C(c1ccc(Cl)cc1)=N[C@@H](CC(=O)N/N=C/c1ncc[nH]1)c1nnc(C)n1-2 [JQ6],binding activity with the BRD4 site 1,[3],excellent binding activity
same,IC50,[1]; proliferation after 72 hours,0.001 µM
same,binding activity with the BRD4 site 2,[4],excellent binding activity
same,IC50,[2]; proliferation after 72 hours,0.051 nM
Cc1sc2c(c1C)C(c1ccc(Cl)cc1)=N[C@@H](CC(=O)NCCc1cnc[nH]1)c1nnc(C)n1-2 [JQ8],binding activity with the BRD4 site 1,[3],excellent binding activity
same,IC50,[1]; proliferation after 72 hours,0.6 µM
same,binding activity with the BRD4 site 2,[4],excellent binding activity
same,IC50,[2]; proliferation after 72 hours,2.8 nM
Cc1sc2c(c1C)C(c1ccc(Cl)cc1)=NC(CC(=O)NCCN1CCOCC1)c1nnc(C)n1-2 (stereo not drawn) [JQ33],IC50,[1]; proliferation after 72 hours,0.00297 µM
same,IC50,[2]; proliferation after 72 hours,8 nM
"Cc1sc2c(c1C)C(c1ccc(Cl)cc1)=N[C@@H](CC(=O)OC(C)(C)C)c1nnc(C)n1-2 [(S)-JQ1, (S)-tert-Butyl 2-(4-(4-chlorophenyl)-2,3,9-trimethyl-6H-thieno[3,2-f][1,2,4]triazolo[4,3-a][1,4]diazepin-6-yl)acetate]",IC50,[1]; 72 h,0.0056 µM
same,IC50,[2]; 72 h,1.5 nM
"Cc1sc2c(c1C)C(c1ccc(Cl)cc1)=N[C@@H](CC(=O)OC(C)(C)C)c1nnc(C)n1-2 (single isomer, unassigned) [(+)-JQ1]",IC50,[5],0.004 µM
same,differentiation and growth arrest phenotypes,[6],prompted
same,fluorescence recovery of GFP-BRD4,"[7]; 250 nM, 5 h",enhanced recovery
same,keratin expression by quantitative IHC,[8],induction of keratin expression
same,IC50,[9],0.06 µM
"Cc1sc2c(c1C)C(c1ccc(Cl)cc1)=NC(CC(=O)OC(C)(C)C)c1nnc(C)n1-2 (racemic) [JQ1, tert-Butyl 2-(4-(4-chlorophenyl)-2,3,9-trimethyl-6H-thieno[3,2-f][1,2,4]triazolo[4,3-a][1,4]diazepin-6-yl)acetate]",differentiation effects,[10],fails to exhibit differentiation effects
same,"time-to-recovery of fluorescence intensity, GFP-BRD4-NUT",[11],markedly accelerated
same,"tolerability (toxicity, weight loss)","[12]; 50 mg kg^-1 daily IP, 14 days",well tolerated
same,tumor growth (tumor volume by caliper),"[12]; 50 mg kg^-1 daily IP, 14 days",statistically-significant reduction in tumor growth
same,FDG uptake by PET imaging,"[12]; 50 mg kg^-1 daily IP, four days",marked response on FDG uptake
same,keratin expression by quantitative IHC,[12]; excised tumor specimens,strong (3+) keratin expression
same,redistribution of GFP-NUT,[13],no effect
same,fluorescence recovery of GFP-BRD4,[7]; 500 nM,immediate
same,body weight,[14],mild weight loss
same,tumor volume,[14],tumor regression
same,effects on cell proliferation,[15],Minimal effects
same,effects on cell proliferation,[16],Minimal effects
same,apoptosis (annexin-V and propidium iodide staining),[17],induced immediate and progressive apoptosis
same,off-target effects on cellular receptors,[18],few off-target effects
Cc1sc2c(c1C)C(c1ccc(Cl)cc1)=N[C@@H](CC(=O)NCCN1CCN(C)CC1)c1nnc(C)n1-2 [JQ13],binding activity with the BRD4 site 1,[3],excellent binding activity
same,binding activity with the BRD4 site 2,[4],excellent binding activity
Cc1sc2c(c1C)C(c1ccc(Cl)cc1)=NC(CC(=O)NCCCN1CCN(C)CC1)c1nnc(C)n1-2 (stereo not drawn) [JQ35],binding activity with the BRD4 site 1,[3],excellent binding activity
same,IC50,[1]; proliferation after 72 hours,0.00609 µM
same,binding activity with the BRD4 site 2,[4],excellent binding activity
same,IC50,[2]; proliferation after 72 hours,3 nM
